In brackets after ≈: the same amount, converted by molar mass.
Columns and labels:
[1] = target: T1, Adenosine receptor A3 (Homo sapiens) (UniProt P0DMS8); assay: Inhibition of [3H]NECA binding to human adenosine A3 receptor expressed in human HeLa cells at 1 uM after 3 hrs by filtration binding assay; assay type: cell-based
T1 sequence (whole entry): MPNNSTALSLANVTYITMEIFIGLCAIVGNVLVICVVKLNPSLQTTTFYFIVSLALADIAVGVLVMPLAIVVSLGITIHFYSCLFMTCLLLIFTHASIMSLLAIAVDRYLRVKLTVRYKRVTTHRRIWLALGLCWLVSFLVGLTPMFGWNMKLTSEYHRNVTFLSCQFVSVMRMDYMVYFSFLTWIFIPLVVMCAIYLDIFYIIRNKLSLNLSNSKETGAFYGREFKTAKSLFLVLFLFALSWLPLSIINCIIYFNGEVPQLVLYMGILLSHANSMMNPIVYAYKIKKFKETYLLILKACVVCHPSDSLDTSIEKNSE

[2] = Apparent permeability across human Caco-2 cells at 12.5 uM; assay type: ADME, cell-based; details: read-out: permeability
[3] = Metabolic stability in rat liver microsomes assessed as turnover at 5 uM after 30 mins in absence of NADPH; assay type: ADME, Microsome; details: read-out: Stability
Adenosine receptor A1 = target: T2, Adenosine receptor A1 (Homo sapiens, UniProt P30542); assay: Displacement of [3H]DPCPX from human adenosine A1 receptor expressed in CHO cells after 90 mins by filtration binding assay; assay type: cell-based
T2 sequence (P30542 whole entry): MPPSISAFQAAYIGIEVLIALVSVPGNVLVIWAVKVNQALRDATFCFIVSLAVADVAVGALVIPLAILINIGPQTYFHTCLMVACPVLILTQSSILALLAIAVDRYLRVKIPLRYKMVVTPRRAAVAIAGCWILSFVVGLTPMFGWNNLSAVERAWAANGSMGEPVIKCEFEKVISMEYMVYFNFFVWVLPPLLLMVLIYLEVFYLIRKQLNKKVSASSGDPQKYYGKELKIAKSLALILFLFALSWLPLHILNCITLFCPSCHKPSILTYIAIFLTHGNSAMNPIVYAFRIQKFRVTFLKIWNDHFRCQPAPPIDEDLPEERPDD

Adenosine receptor A2b = target: T3, Adenosine receptor A2b (Homo sapiens, UniProt P29275); assay: Displacement of [3H]DPCPX from human adenosine A2B receptor expressed in HEK293 cells after 60 mins by filtration binding assay; assay type: cell-based
T3 sequence (P29275 whole entry): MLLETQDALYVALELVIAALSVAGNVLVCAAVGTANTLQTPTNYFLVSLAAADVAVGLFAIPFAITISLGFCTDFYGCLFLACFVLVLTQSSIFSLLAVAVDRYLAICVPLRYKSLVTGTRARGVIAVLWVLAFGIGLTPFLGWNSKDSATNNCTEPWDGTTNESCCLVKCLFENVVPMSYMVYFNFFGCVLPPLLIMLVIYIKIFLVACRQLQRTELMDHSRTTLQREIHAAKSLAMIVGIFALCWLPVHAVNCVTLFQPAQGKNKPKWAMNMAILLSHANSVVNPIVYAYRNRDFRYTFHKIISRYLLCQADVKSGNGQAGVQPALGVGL

Adenosine receptor A2a = Adenosine receptor A2a (Homo sapiens, UniProt P29274); assay: Displacement of [3H]ZM241385 from human adenosine A2A receptor expressed in human HeLa cells after 1 hr by scintillation proximity assay; assay type: cell-based
Sequence of Adenosine receptor A2a (P29274 whole entry): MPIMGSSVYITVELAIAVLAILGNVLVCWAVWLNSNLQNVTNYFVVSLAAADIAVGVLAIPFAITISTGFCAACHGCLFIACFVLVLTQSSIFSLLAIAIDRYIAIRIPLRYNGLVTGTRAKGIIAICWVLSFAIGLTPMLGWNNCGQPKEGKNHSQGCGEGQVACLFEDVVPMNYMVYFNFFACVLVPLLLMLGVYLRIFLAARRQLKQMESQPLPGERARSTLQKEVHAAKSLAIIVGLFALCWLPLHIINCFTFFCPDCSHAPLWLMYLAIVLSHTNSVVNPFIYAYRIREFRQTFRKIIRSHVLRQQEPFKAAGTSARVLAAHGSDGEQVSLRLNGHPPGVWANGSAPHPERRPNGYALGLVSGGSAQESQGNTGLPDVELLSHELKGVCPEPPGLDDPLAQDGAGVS

[4] = Cmax in rat at 1 mg/kg, iv; assay type: ADME, organism-based; parameters: dose 1 mg/kg, route intravenous; details: in vivo
[5] = Volume of distribution at steady state in rat at 1 mg/kg, iv; assay type: ADME, organism-based; parameters: dose 1 mg/kg, route intravenous; details: in vivo, read-out: Vdss
[6] = Clearance in rat at 1 mg/kg, iv; assay type: ADME, organism-based; parameters: dose 1 mg/kg, route intravenous; details: in vivo
[7] = AUC (0 to infinity) in rat at 1 mg/kg, iv; assay type: ADME, organism-based; parameters: time infinity, dose 1 mg/kg, route intravenous; details: plasma
[8] = Terminal half life in rat at 1 mg/kg, iv; assay type: ADME, organism-based; parameters: dose 1 mg/kg, route intravenous; details: in vivo
Adenosine receptor A3 = target: T4, Adenosine receptor A3 (Homo sapiens, UniProt P0DMS8); assay: Displacement of [3H]NECA from human adenosine A3 receptor expressed in human HeLa cells after 3 hrs by filtration binding assay; assay type: cell-based
T4 sequence (P0DMS8 whole entry): T1 sequence (whole entry)

[9] = Thermodynamic solubility at pH 7.4; assay type: physicochemical; details: buffer
[10] = Oral bioavailability in rat at 10 mg/kg; assay type: ADME, organism-based; details: in vivo

SMILES	inhibition [1]	Papp at 12.5 µM [2]	metabolised at 0.5 h, 5 µM [3]	Ki (Adenosine receptor A1)	Ki (Adenosine receptor A2b)	Ki (Adenosine receptor A2a)	Cmax [4]	Vd [5]	clearance [6]	AUC(0-inf) [7]	half-life [8]	Ki (Adenosine receptor A3)	solubility thermodynamic [9]	bioavailability [10]
c1coc(-c2nc3[nH]cnc3cc2-c2ccncn2)c1	0%	23 ×10⁻⁶ cm/s	10%	717 nM	21 nM	3600 nM	–	–	–	–	–	–	–	–
Cn1c(=O)[nH]c2nc(-c3ccco3)c(-c3ccncn3)cc21	17%	32 ×10⁻⁶ cm/s	8%	2440 nM	11 nM	2130 nM	–	–	–	–	–	–	–	–
O=C(Nc1ccc(-c2ccncn2)c(-c2ccco2)n1)C1CC1	–	45 ×10⁻⁶ cm/s	–	–	–	–	–	–	–	–	–	–	–	–
O=c1[nH]c(=O)c2cc(-c3ccncn3)c(-c3ccco3)nc2[nH]1	–	20 ×10⁻⁶ cm/s	0%	1730 nM	1 nM	181 nM	1680 ng/mL	0.75 L/kg	20 mL/min/kg	880 ng·h/mL	24 min	6270 nM	61 µg/mL (≈ 199 µM)	–

Second part, the compound after the results:

inhibition [1]	Papp at 12.5 µM [2]	metabolised at 0.5 h, 5 µM [3]	Ki (Adenosine receptor A1)	Ki (Adenosine receptor A2b)	Ki (Adenosine receptor A2a)	Cmax [4]	Vd [5]	clearance [6]	AUC(0-inf) [7]	half-life [8]	Ki (Adenosine receptor A3)	solubility thermodynamic [9]	bioavailability [10]	SMILES
2%	3.5 ×10⁻⁶ cm/s	7%	82 nM	3 nM	177 nM	1330 ng/mL	0.6 L/kg	33.3 mL/min/kg	504 ng·h/mL	24 min	–	–	–	O=c1[nH][nH]c2nc(-c3ccco3)c(-c3ccncn3)cc12
7%	40 ×10⁻⁶ cm/s	88%	252 nM	13 nM	619 nM	–	–	–	–	–	–	–	–	c1coc(-c2nc3[nH]ccc3cc2-c2ccncn2)c1
18%	40 ×10⁻⁶ cm/s	15%	317 nM	6 nM	769 nM	762 ng/mL	1 L/kg	50 mL/min/kg	350 ng·h/mL	60 min	–	48 µg/mL (≈ 172 µM)	20%	O=c1[nH]c2cc(-c3ccncn3)c(-c3ccco3)nc2[nH]1
15%	24 ×10⁻⁶ cm/s	6%	357 nM	8 nM	858 nM	397 ng/mL	3.7 L/kg	102 mL/min/kg	164 ng·h/mL	24 min	–	204 µg/mL (≈ 733 µM)	–	Nc1n[nH]c2nc(-c3ccco3)c(-c3ccncn3)cc12
2%	39 ×10⁻⁶ cm/s	17%	478 nM	23 nM	1660 nM	1050 ng/mL	0.8 L/kg	23.3 mL/min/kg	736 ng·h/mL	36 min	–	296 µg/mL (≈ 1120 µM)	–	c1coc(-c2nc3[nH]ncc3cc2-c2ccncn2)c1
